Laboratory results: PubChem BioAssay (NCI)
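The compound was tested at five concentrations on cells cultured in 96-well plates, with a 48-hour exposure period. TGI: total growth inhibition.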

What was measured:
Assay in all cases: DTP human tumour cell line panel, 48 h
IGROV1 ovarian = tested on: IGROV1 ovarian
SW-620 colon = tested on: SW-620 colon
HOP-62 NSCLC = tested on: HOP-62 NSCLC
OVCAR-3 ovarian = tested on: OVCAR-3 ovarian
HL-60(TB) leukemia = tested on: HL-60(TB) leukemia
SF-539 CNS = tested on: SF-539 CNS
M14 melanoma = tested on: M14 melanoma
UO-31 renal = tested on: UO-31 renal
MOLT-4 leukemia = tested on: MOLT-4 leukemia
U251 CNS = tested on: U251 CNS
SNB-19 CNS = tested on: SNB-19 CNS
NCI-H226 lung = tested on: NCI-H226 lung
ACHN renal = tested on: ACHN renal
BT-549 breast = tested on: BT-549 breast
SK-MEL-5 melanoma = tested on: SK-MEL-5 melanoma
PC-3 prostate = tested on: PC-3 prostate
SF-295 CNS = tested on: SF-295 CNS
SF-268 CNS = tested on: SF-268 CNS
UACC-62 melanoma = tested on: UACC-62 melanoma
OVCAR-5 ovarian = tested on: OVCAR-5 ovarian
TK-10 renal = tested on: TK-10 renal
OVCAR-8 ovarian = tested on: OVCAR-8 ovarian
LOX IMVI melanoma = tested on: LOX IMVI melanoma
MDA-N = tested on: MDA-N
MDA-MB-435 = tested on: MDA-MB-435
NCI-H23 lung = tested on: NCI-H23 lung
HCT-15 colon = tested on: HCT-15 colon
OVCAR-4 ovarian = tested on: OVCAR-4 ovarian
SK-MEL-2 melanoma = tested on: SK-MEL-2 melanoma
SN12C renal = tested on: SN12C renal
786-0 renal = tested on: 786-0 renal
K-562 leukemia = tested on: K-562 leukemia
HOP-92 NSCLC = tested on: HOP-92 NSCLC
RPMI-8226 leukemia = tested on: RPMI-8226 leukemia
SK-MEL-28 melanoma = tested on: SK-MEL-28 melanoma
COLO 205 colon = tested on: COLO 205 colon
CCRF-CEM leukemia = tested on: CCRF-CEM leukemia
DU-145 prostate = tested on: DU-145 prostate
MCF7 breast = tested on: MCF7 breast
UACC-257 melanoma = tested on: UACC-257 melanoma
NCI-H460 lung = tested on: NCI-H460 lung
HT29 colon = tested on: HT29 colon
KM12 colon = tested on: KM12 colon
HCT-116 colon = tested on: HCT-116 colon
EKVX NSCLC = tested on: EKVX NSCLC
CAKI-1 renal = tested on: CAKI-1 renal
NCI-H522 lung = tested on: NCI-H522 lung
HCC-2998 colon = tested on: HCC-2998 colon
MDA-MB-231 breast = tested on: MDA-MB-231 breast
SNB-75 CNS = tested on: SNB-75 CNS
NCI/ADR-RES ovarian = tested on: NCI/ADR-RES ovarian
SK-OV-3 ovarian = tested on: SK-OV-3 ovarian
A549 NSCLC = tested on: A549 NSCLC
HS 578T breast = tested on: HS 578T breast
T-47D breast = tested on: T-47D breast
MALME-3M melanoma = tested on: MALME-3M melanoma
RXF 393 renal = tested on: RXF 393 renal
A498 renal = tested on: A498 renal

COC(=O)[C@@H]1O[C@]12C(CO[Si](C)(C)C(C)(C)C)OC(n1ccc(=O)[nH]c1=O)C2O[Si](C)(C)C(C)(C)C (some centres not stated)
TGI (IGROV1 ovarian): 46.1 µM | TGI (SW-620 colon): > 100 µM | TGI (HOP-62 NSCLC): 48 µM | TGI (OVCAR-3 ovarian): 30.8 µM | TGI (HL-60(TB) leukemia): 62.6 µM | TGI (SF-539 CNS): 38 µM | TGI (M14 melanoma): 30.7 µM | TGI (UO-31 renal): 45.5 µM | TGI (MOLT-4 leukemia): 76.5 µM | TGI (U251 CNS): > 100 µM | TGI (SNB-19 CNS): > 100 µM | TGI (NCI-H226 lung): 30.7 µM | TGI (ACHN renal): 54.1 µM | TGI (BT-549 breast): 47.7 µM | TGI (SK-MEL-5 melanoma): 51.6 µM | TGI (PC-3 prostate): 68.1 µM | TGI (SF-295 CNS): 57.7 µM | TGI (SF-268 CNS): > 100 µM | TGI (UACC-62 melanoma): 72.7 µM | TGI (OVCAR-5 ovarian): 77.5 µM | TGI (TK-10 renal): 83.9 µM | TGI (OVCAR-8 ovarian): > 100 µM | TGI (LOX IMVI melanoma): 42.5 µM | TGI (MDA-N): > 100 µM | TGI (MDA-MB-435): 58.7 µM | TGI (NCI-H23 lung): 54.5 µM | TGI (HCT-15 colon): > 100 µM | TGI (OVCAR-4 ovarian): > 100 µM | TGI (SK-MEL-2 melanoma): 33.2 µM | TGI (SN12C renal): 85.7 µM | TGI (786-0 renal): > 100 µM | TGI (K-562 leukemia): > 100 µM | TGI (HOP-92 NSCLC): 88.1 µM | TGI (RPMI-8226 leukemia): > 100 µM | TGI (SK-MEL-28 melanoma): 59 µM | TGI (COLO 205 colon): 69.7 µM | TGI (CCRF-CEM leukemia): > 100 µM | TGI (DU-145 prostate): 61.1 µM | TGI (MCF7 breast): 37.2 µM | TGI (UACC-257 melanoma): 57.5 µM | TGI (NCI-H460 lung): > 100 µM | TGI (HT29 colon): 43.4 µM | TGI (KM12 colon): 77.9 µM | TGI (HCT-116 colon): > 100 µM | TGI (EKVX NSCLC): 62.6 µM | TGI (CAKI-1 renal): 72 µM | TGI (NCI-H522 lung): 45.4 µM | TGI (HCC-2998 colon): > 100 µM | TGI (MDA-MB-231 breast): > 100 µM | TGI (SNB-75 CNS): > 100 µM | TGI (NCI/ADR-RES ovarian): > 100 µM | TGI (SK-OV-3 ovarian): > 100 µM | TGI (A549 NSCLC): > 100 µM

CCCCCCNC(=O)c1cc(NCc2cc(OC)ccc2OC)ccc1O
TGI (IGROV1 ovarian): 55 µM | TGI (SW-620 colon): > 100 µM | TGI (OVCAR-3 ovarian): 7.05 µM | TGI (HL-60(TB) leukemia): 46 µM | TGI (SF-539 CNS): 36.3 µM | TGI (HS 578T breast): 97.9 µM | TGI (M14 melanoma): 38.4 µM | TGI (UO-31 renal): 53.1 µM | TGI (MOLT-4 leukemia): 66.5 µM | TGI (U251 CNS): 41.1 µM | TGI (SNB-19 CNS): > 100 µM | TGI (NCI-H226 lung): 64.9 µM | TGI (ACHN renal): > 100 µM | TGI (BT-549 breast): 33.4 µM | TGI (SK-MEL-5 melanoma): 28.4 µM | TGI (PC-3 prostate): 45.7 µM | TGI (SF-295 CNS): 30.1 µM | TGI (SF-268 CNS): 32.3 µM | TGI (UACC-62 melanoma): 33 µM | TGI (T-47D breast): 46.1 µM | TGI (OVCAR-5 ovarian): > 100 µM | TGI (TK-10 renal): > 100 µM | TGI (OVCAR-8 ovarian): 86.7 µM | TGI (LOX IMVI melanoma): 32.9 µM | TGI (MALME-3M melanoma): 55.9 µM | TGI (MDA-N): 41.8 µM | TGI (MDA-MB-435): 44.8 µM | TGI (NCI-H23 lung): 80.6 µM | TGI (HCT-15 colon): 57.3 µM | TGI (OVCAR-4 ovarian): 70.5 µM | TGI (SK-MEL-2 melanoma): 45.8 µM | TGI (RXF 393 renal): 56.5 µM | TGI (SN12C renal): 53.7 µM | TGI (786-0 renal): 75 µM | TGI (K-562 leukemia): 47.3 µM | TGI (HOP-92 NSCLC): 31.7 µM | TGI (RPMI-8226 leukemia): 35.6 µM | TGI (SK-MEL-28 melanoma): > 100 µM | TGI (COLO 205 colon): 33.9 µM | TGI (CCRF-CEM leukemia): 68.6 µM | TGI (DU-145 prostate): > 100 µM | TGI (MCF7 breast): 53.5 µM | TGI (UACC-257 melanoma): 45.7 µM | TGI (NCI-H460 lung): 84.4 µM | TGI (HT29 colon): 85.2 µM | TGI (KM12 colon): 80 µM | TGI (HCT-116 colon): 49.6 µM | TGI (EKVX NSCLC): 63.1 µM | TGI (CAKI-1 renal): 98 µM | TGI (NCI-H522 lung): 33.1 µM | TGI (HCC-2998 colon): 68.4 µM | TGI (MDA-MB-231 breast): 46.7 µM | TGI (SNB-75 CNS): 76.3 µM | TGI (NCI/ADR-RES ovarian): 48.1 µM | TGI (SK-OV-3 ovarian): 36.9 µM | TGI (A549 NSCLC): > 100 µM

CC1=C(C)SC(=C2Sc3c(n(C)c(=O)[nH]c3=O)S2)S1
TGI (A498 renal): > 100 µM | TGI (IGROV1 ovarian): > 100 µM | TGI (SW-620 colon): > 100 µM | TGI (HOP-62 NSCLC): > 100 µM | TGI (OVCAR-3 ovarian): > 100 µM | TGI (HL-60(TB) leukemia): > 100 µM | TGI (SF-539 CNS): > 100 µM | TGI (HS 578T breast): > 100 µM | TGI (M14 melanoma): > 100 µM | TGI (UO-31 renal): > 100 µM | TGI (MOLT-4 leukemia): > 100 µM | TGI (U251 CNS): > 100 µM | TGI (SNB-19 CNS): > 100 µM | TGI (NCI-H226 lung): > 100 µM | TGI (ACHN renal): > 100 µM | TGI (BT-549 breast): > 100 µM | TGI (SK-MEL-5 melanoma): > 100 µM | TGI (PC-3 prostate): > 100 µM | TGI (SF-295 CNS): > 100 µM | TGI (SF-268 CNS): > 100 µM | TGI (UACC-62 melanoma): > 100 µM | TGI (T-47D breast): > 100 µM | TGI (OVCAR-5 ovarian): > 100 µM | TGI (TK-10 renal): > 100 µM | TGI (OVCAR-8 ovarian): > 100 µM | TGI (LOX IMVI melanoma): > 100 µM | TGI (MALME-3M melanoma): > 100 µM | TGI (MDA-N): > 100 µM | TGI (MDA-MB-435): > 100 µM | TGI (NCI-H23 lung): > 100 µM | TGI (HCT-15 colon): > 100 µM | TGI (OVCAR-4 ovarian): > 100 µM | TGI (SK-MEL-2 melanoma): > 100 µM | TGI (RXF 393 renal): > 100 µM | TGI (SN12C renal): > 100 µM | TGI (786-0 renal): > 100 µM | TGI (K-562 leukemia): > 100 µM | TGI (HOP-92 NSCLC): > 100 µM | TGI (RPMI-8226 leukemia): > 100 µM | TGI (SK-MEL-28 melanoma): > 100 µM | TGI (COLO 205 colon): > 100 µM | TGI (CCRF-CEM leukemia): > 100 µM | TGI (DU-145 prostate): > 100 µM | TGI (MCF7 breast): > 100 µM | TGI (UACC-257 melanoma): > 100 µM | TGI (NCI-H460 lung): > 100 µM | TGI (HT29 colon): > 100 µM | TGI (KM12 colon): > 100 µM | TGI (HCT-116 colon): > 100 µM | TGI (EKVX NSCLC): > 100 µM | TGI (CAKI-1 renal): > 100 µM | TGI (NCI-H522 lung): > 100 µM | TGI (HCC-2998 colon): > 100 µM | TGI (MDA-MB-231 breast): > 100 µM | TGI (SNB-75 CNS): > 100 µM | TGI (NCI/ADR-RES ovarian): > 100 µM | TGI (SK-OV-3 ovarian): > 100 µM | TGI (A549 NSCLC): > 100 µM
